Test results from PubChem BioAssay AID2742 (NMMLSC, 2010).
Calls of active or inactive are those of the source.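 The calls were made as follows: active = fitted half-maximal concentration for changing background-corrected GFP signal at or below a set limit; inactive = the rest.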

Experiment: modulators of MEP2-GFP levels in yeast, dose response, S. cerevisiae, flow cytometry GFP, MLPCN hits (AID 2742);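 also: GFP tag reports level of MEP2 protein as a downstream target of TOR signalling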
Conditions: S. cerevisiae MEP2-GFP strain, flow cytometry fluorescence, 3 h; at 33 µM (top of the series)
With c1ccc(-c2csc(Nc3cccnc3)n2)nc1 the GFP fluorescence (kMESF), higher = increase was 1.4 kMESF (inactive). With COc1ccc(N2C(=O)C(Cl)=C(NCc3ccccc3)C2=O)cc1 the GFP fluorescence (kMESF), higher = increase was 3.91 kMESF (inactive). For Cc1cc(/C=C2/SC(=S)N(c3cccc(Cl)c3)C2=O)c(C)n1-c1cccnc1, the GFP fluorescence (kMESF), higher = increase was 8.22 kMESF (inactive). For C/C(=N\NC(=O)c1cccc(Br)c1)c1ccccn1, the GFP fluorescence (kMESF), higher = increase was 4.33 kMESF (inactive). With O=C(OCn1ncc(Br)c(Br)c1=O)c1c(F)cccc1F the GFP fluorescence (kMESF), higher = increase was 4.49 kMESF (inactive). For O=C(Nc1ccc(NC(=O)c2cc3ccccc3o2)cc1)c1ccc2c(c1)OCCO2, the GFP fluorescence (kMESF), higher = increase was 2.4 kMESF (inactive). In the case of O=C1Nc2ccc(Br)cc2/C1=C/C(=O)c1ccc2c(c1)OCO2, the GFP fluorescence (kMESF), higher = increase is reported as 4.66 kMESF (inactive). For O=C1Oc2ccccc2C(=O)/C1=C/c1ccccc1O, the GFP fluorescence (kMESF), higher = increase was 5.39 kMESF (inactive). With CCOC(=O)CCS(=O)(=O)c1nc(-c2ccccc2)cc(C(F)(F)F)n1 the GFP fluorescence (kMESF), higher = increase was 7.24 kMESF (inactive). For Cc1ccc(C(CC(=O)O)NC(=O)c2ccc(S(=O)(=O)N3CC(C)OC(C)C3)cc2)cc1 (stereo not drawn), the GFP fluorescence (kMESF), higher = increase was 3.08 kMESF (inactive). With Cc1cc(C)c(OCC(=O)Nc2nc(-c3ccccn3)cs2)c(C)c1 the GFP fluorescence (kMESF), higher = increase was 2.37 kMESF (inactive). For COc1ccccc1N1C(=O)c2cccc3c(C(=O)O)ccc(c23)C1=O, the GFP fluorescence (kMESF), higher = increase was 3.03 kMESF (inactive). In the case of Cc1ccc(S(=O)(=O)N2CCCC2C(=O)NCc2ccncc2)cc1 (stereo not drawn), the GFP fluorescence (kMESF), higher = increase is reported as 2.1 kMESF (inactive). With O=C1NC(=O)N(CCc2ccc(F)cc2)C(=O)/C1=C/c1cccs1 the GFP fluorescence (kMESF), higher = increase was 4.39 kMESF (inactive). For COc1cc(/C=C/c2ccc3c(Br)cc(Br)c(O)c3n2)ccc1O, the GFP fluorescence (kMESF), higher = increase was 9.24 kMESF (inactive). In the case of COc1cc(/C=C2/C(=O)c3cccc([N+](=O)[O-])c3C2=O)c(Br)cc1O, the GFP fluorescence (kMESF), higher = increase is reported as 3.18 kMESF (inactive). In the case of On1ccccc1=S, the GFP fluorescence (kMESF), higher = increase is reported as 3.58 kMESF (inactive). In the case of Cc1ccc(/C=c2\sc3nc(-c4cccs4)nn3c2=O)o1, the GFP fluorescence (kMESF), higher = increase is reported as 8.12 kMESF (inactive). In the case of C[n+]1ccc(/C=C/c2c[nH]c3ccccc23)cc1, the GFP fluorescence (kMESF), higher = increase is reported as 7.26 kMESF (inactive). For CCC(=O)Nc1ccc(NC(=O)c2cc3ccccc3o2)cc1, the GFP fluorescence (kMESF), higher = increase was 2.2 kMESF (inactive). In the case of Cc1cc(C2CCCCC2)n(O)c(=O)c1, the GFP fluorescence (kMESF), higher = increase is reported as 5.36 kMESF (inactive). With O=S(=O)(/N=C(\Sc1ccc(Cl)cc1)c1ccccc1)c1ccccc1 the GFP fluorescence (kMESF), higher = increase was 4.33 kMESF (inactive). In the case of Cc1ccc(N2C(=O)CC(Sc3ncn[nH]3)C2=O)cc1C (stereo not drawn), the GFP fluorescence (kMESF), higher = increase is reported as 3.74 kMESF (inactive). For CC(=O)Oc1ccc(N2C(=O)C3C4C=CC(O4)C3C2=O)cc1 (stereo not drawn), the GFP fluorescence (kMESF), higher = increase was 3.13 kMESF (inactive). With COc1ccc(CCNC2=C(Cl)C(=O)N(CCc3ccc(OC)c(OC)c3)C2=O)cc1OC the GFP fluorescence (kMESF), higher = increase was 2.9 kMESF (inactive). With O=C1C=C(Nc2ccc(Cl)cc2)C(=O)N1c1ccc(Cl)cc1 the GFP fluorescence (kMESF), higher = increase was 1.97 kMESF (inactive). For O=C(NC(=S)NNC(=O)c1ccc(Cl)cc1Cl)c1cccnc1, the GFP fluorescence (kMESF), higher = increase was 1.66 kMESF (inactive). With CN(C)/C=C/C(=O)c1ccc(-c2ccc(Cl)cc2Cl)o1 the GFP fluorescence (kMESF), higher = increase was 2 kMESF (inactive). For CCOC(=O)CSC1=NC(=O)/C(=C/c2ccc(Br)cc2)S1, the GFP fluorescence (kMESF), higher = increase was 4.7 kMESF (inactive). In the case of O=C(/C=C/c1ccccn1)c1cc(Br)ccc1O, the GFP fluorescence (kMESF), higher = increase is reported as 4.38 kMESF (inactive). With Cc1nn2c(NCc3ccccn3)c3c(nc2c1-c1ccccc1)CCC3 the GFP fluorescence (kMESF), higher = increase was 2.73 kMESF (inactive). With O=C1N(c2ccccc2C(F)(F)F)O[C@]1(c1ccccc1)C1CCCCC1 the GFP fluorescence (kMESF), higher = increase was 3.28 kMESF (inactive). With COc1cccc(/C=C2\C(=O)N(c3cccc(C)c3)C(=O)c3ccccc32)c1 the GFP fluorescence (kMESF), higher = increase was 4.32 kMESF (inactive). With O=C1c2ccccc2C(=O)N1OS(=O)(=O)c1ccccc1 the GFP fluorescence (kMESF), higher = increase was 3.26 kMESF (inactive). With CC(=O)N(C1=C(Cl)C(=O)c2ccccc2C1=O)C1CCCCC1 the GFP fluorescence (kMESF), higher = increase was -3.41 kMESF (inactive). With COc1ccc(/C=C/C(=O)C2C(=O)C=C(C)OC2=O)cc1O (stereo not drawn) the GFP fluorescence (kMESF), higher = increase was 5.45 kMESF (inactive). With O=C(Cc1ccc(Cl)cc1)NNC(=S)NC(=O)c1cccs1 the GFP fluorescence (kMESF), higher = increase was 6.72 kMESF (inactive). With COc1cc(NC(=O)c2ccc(C)cc2)ccc1NC(=O)c1cc2ccccc2o1 the GFP fluorescence (kMESF), higher = increase was 2.3 kMESF (inactive). For O=C(/C=C/c1ccccc1)c1cc(Br)ccc(=O)c1O, the GFP fluorescence (kMESF), higher = increase was -11.3 kMESF (inactive). In the case of CCC(=O)Nc1ccc(NC(=O)c2cc3ccccc3o2)c(OC)c1, the GFP fluorescence (kMESF), higher = increase is reported as 2.4 kMESF (inactive). In the case of O=C(Oc1ccnc2cc(Cl)ccc12)N1CCOCC1, the GFP fluorescence (kMESF), higher = increase is reported as 2.97 kMESF (inactive). With Cc1nn2c(-c3ccncc3)nnc2c2ccccc12 the GFP fluorescence (kMESF), higher = increase was 1.97 kMESF (inactive). For CSc1nnc2c3cc(F)ccc3n(C)c2n1, the GFP fluorescence (kMESF), higher = increase was 2.36 kMESF (inactive). With CCOC(=O)c1c(C)oc2c1c(C(c1ccncc1)N1CCOCC1)c(O)c1ccccc12 (stereo not drawn) the GFP fluorescence (kMESF), higher = increase was 2.42 kMESF (inactive). With Cc1cccc(N=Nc2ccc(O)c3ncccc23)c1 the GFP fluorescence (kMESF), higher = increase was 3.18 kMESF (inactive). With O=C1c2ccccc2C(=O)N1OS(=O)(=O)c1ccc(F)cc1 the GFP fluorescence (kMESF), higher = increase was 3.26 kMESF (inactive). For O=[N+]([O-])c1cc(CN2CCN(c3cccc(C(F)(F)F)c3)CC2)c2cccnc2c1O, the GFP fluorescence (kMESF), higher = increase was 4.44 kMESF (inactive). In the case of O=C1C(Cl)=C(N2CCN(Cc3ccccc3)CC2)C(=O)N1c1ccccc1, the GFP fluorescence (kMESF), higher = increase is reported as 3.31 kMESF (inactive). In the case of CC1=C(C)/C(=N\OS(=O)(=O)c2ccccc2)C=CC1=O, the GFP fluorescence (kMESF), higher = increase is reported as 4.84 kMESF (inactive). For O=C(c1ccc(C(=O)N2CCCc3ccccc32)s1)N1CCCc2ccccc21, the GFP fluorescence (kMESF), higher = increase was 3.28 kMESF (inactive). For Nc1nc(N)c2nc(CNc3ccc(C(=O)NC(CCC(=O)O)C(=O)O)cc3)cnc2n1 (stereo not drawn), the GFP fluorescence (kMESF), higher = increase was 1.62 kMESF (inactive). For O=c1c2cc(Br)ccc2nc(-c2ccc([N+](=O)[O-])cc2)n1O, the GFP fluorescence (kMESF), higher = increase was 3.87 kMESF (inactive). In the case of CCn1c(=O)c(C(=O)Nc2nc3ccccc3[nH]2)c(O)c2ccccc21, the GFP fluorescence (kMESF), higher = increase is reported as 2.38 kMESF (inactive). For COc1ccc([C@]2(C(C)C)ON(c3ccccc3C(F)(F)F)C2=O)cc1, the GFP fluorescence (kMESF), higher = increase was 2.67 kMESF (inactive). In the case of O=C(COc1ccccc1)NNC(=S)NC(=O)c1ccc(Cl)cc1Cl, the GFP fluorescence (kMESF), higher = increase is reported as 4.07 kMESF (inactive). For O=C(O)c1ccccc1SC1CC(=O)N(c2ccc3c(c2)OCO3)C1=O (stereo not drawn), the GFP fluorescence (kMESF), higher = increase was 3.4 kMESF (inactive). In the case of CCc1ccc(C(=O)/C=C/c2ccc([N+](=O)[O-])o2)cc1, the GFP fluorescence (kMESF), higher = increase is reported as 6.79 kMESF (inactive). For Oc1c(Br)cc(Br)cc1C=Nc1ccc2[nH]ncc2c1, the GFP fluorescence (kMESF), higher = increase was 5.46 kMESF (inactive). For COc1cc(/C=C2\CC/C(=C\c3cc(OC)c(O)c(OC)c3)C2=O)cc(OC)c1O, the GFP fluorescence (kMESF), higher = increase was 3.25 kMESF (inactive). In the case of Oc1ccc2ccccc2c1N=Nc1nccs1, the GFP fluorescence (kMESF), higher = increase is reported as 4.97 kMESF (inactive). In the case of Cc1cc(O)c(C(=O)/C=C/c2c(F)c(F)c(F)c(F)c2F)c(=O)o1, the GFP fluorescence (kMESF), higher = increase is reported as 0.99 kMESF (inactive). With Cc1cc(Br)c2c(c1)/C(=C/C(=O)c1cccs1)C(=O)N2 the GFP fluorescence (kMESF), higher = increase was 3.78 kMESF (inactive). In the case of CC(C)Cn1c(=O)c(C(=O)Nc2ccncc2)c(O)c2ccccc21, the GFP fluorescence (kMESF), higher = increase is reported as 3.98 kMESF (inactive). With C=CCN1C(=O)/C(=C/c2ccc(-c3ccc(F)cc3)o2)SC1=S the GFP fluorescence (kMESF), higher = increase was 8.29 kMESF (inactive). With O=C(Oc1c(Cl)cc(Cl)c2cccnc12)c1cccs1 the GFP fluorescence (kMESF), higher = increase was 3.47 kMESF (inactive). With COc1ccc2c(c1)S/C(=C\C(=O)c1ccncc1)N2C the GFP fluorescence (kMESF), higher = increase was 2.67 kMESF (inactive). In the case of O=C(OCC(=O)N1CCN(C(=O)c2ccco2)CC1)c1cc(-c2cccc(Br)c2)nc2ccccc12, the GFP fluorescence (kMESF), higher = increase is reported as 4.47 kMESF (inactive). With CCN1/C(=C/C=C/c2sc3ccccc3[n+]2CC)Sc2ccccc21 the GFP fluorescence (kMESF), higher = increase was 105 kMESF (inactive). With O=C1c2cccc3c([N+](=O)[O-])ccc(c23)C(=O)N1CCc1ccccn1 the GFP fluorescence (kMESF), higher = increase was 5.48 kMESF (inactive). In the case of Cc1cccc(C(=O)NNC(=S)NC(=O)c2ccccc2)c1, the GFP fluorescence (kMESF), higher = increase is reported as 5.31 kMESF (inactive). With O=C(Nc1cccc(-c2csc(Nc3ccccc3)n2)c1)c1ccccc1 the GFP fluorescence (kMESF), higher = increase was 2.61 kMESF (inactive). With O=C(c1ccc([N+](=O)[O-])o1)N1CCN(c2nc3c(F)cc(F)cc3s2)CC1 the GFP fluorescence (kMESF), higher = increase was -3.51 kMESF (inactive). In the case of O=C(O)c1ccc2c(c1)C(=O)/C(=C/c1ccccc1)C2=O, the GFP fluorescence (kMESF), higher = increase is reported as 2.47 kMESF (inactive). In the case of CN1CCN(C(c2ccc(C(F)(F)F)cc2)c2ccc3cccnc3c2O)CC1 (stereo not drawn), the GFP fluorescence (kMESF), higher = increase is reported as 4.86 kMESF (inactive). In the case of O=C(NCc1ccc2c(c1)OCO2)c1nc(S(=O)(=O)Cc2ccccc2)ncc1Cl, the GFP fluorescence (kMESF), higher = increase is reported as 2.56 kMESF (inactive). With CC(C)(C)c1ccc(NC(=O)COC(=O)c2ccc([N+](=O)[O-])s2)cc1 the GFP fluorescence (kMESF), higher = increase was 2.3 kMESF (inactive). In the case of Cc1[nH][nH]c(=O)c1C(c1ccc(-c2ccc(Cl)c(Cl)c2)o1)c1c(C)[nH][nH]c1=O, the GFP fluorescence (kMESF), higher = increase is reported as 4.42 kMESF (inactive). In the case of CN(C)NC(=S)Nc1ccc(S(=O)(=O)N2CCCCC2)cc1, the GFP fluorescence (kMESF), higher = increase is reported as 1.92 kMESF (inactive). With Cc1ccc2c(nc3s/c(=C\c4ccc(-c5ccccc5C(=O)O)o4)c(=O)n32)c1C the GFP fluorescence (kMESF), higher = increase was 25.5 kMESF (inactive). For COc1ccc(C(=O)NC(=S)NNC(=O)c2cnccn2)cc1, the GFP fluorescence (kMESF), higher = increase was 3.91 kMESF (inactive). For O=C(c1ccc(Cl)cc1)N1CCN(c2cccc3[nH]ccc23)CC1, the GFP fluorescence (kMESF), higher = increase was 3.33 kMESF (inactive). In the case of Cc1ccc(S(=O)(=O)N2CC(C(=O)O)=CC[C@H]2c2ccc(Cl)cc2)cc1, the GFP fluorescence (kMESF), higher = increase is reported as 3.69 kMESF (inactive). In the case of N=C1/C(=C\c2coc3ccccc3c2=O)C(=O)N=C2SC(c3ccncc3)=NN12, the GFP fluorescence (kMESF), higher = increase is reported as -3.13 kMESF (inactive).
